Reference: patent US11111227B2, “Rotigotine behenate, and manufacturing method and application thereof” (Shandong Luye Pharmaceutical Co., Ltd., priority 2016, dated 2021)
Values belong to the compound of their own block, whether it stands above or below them.

Columns and labels:
[1] = Test Example 3: pharmacokinetic performance of each drug injection in rats (intramuscular); type: in vivo
Description: Test Example 3: Pharmacokinetic Performance of Each Drug Injection in Rats
Male SD rats (provided by Shandong Luye Pharma Group Ltd.), weighing 190-280 g, 12 rats, 3 rats in each group.
Vehicle containing 1% of HPMC was prepared, and rotigotine arachidate, rotigotine behenate and rotigotine lignocerate were added to the vehicle respectively to provide 10 mg/ml of suspensions (calculated as rotigotine).
The experimental animals were randomly divided into rotigotine arachidate group (A), rotigotine behenate group (B) and rotigotine lignocerate group (C), with 3 rats in each group, The rats in Groups A, B and C were intramuscularly injected with the corresponding drug (2 ml/kg).
(§1) Blood samples were taken from the eyelids of the rats in Groups A, B, and C before the administration (0 h) and at 0.25 h, 1 h, 6 h, 1 d, 2 d, 3 d, 5 d, 7 d, 9 d, 11 d, 14 d, 16 d, 18 d, 21 d, 25 d, 28 d, 30 d, 35 d, 39 d, 42 d after administration. Each blood sample was placed into heparinized EP tube, and was immediately centrifuged (3000 rpm) for 10 min. The plasma was separated and stored at −35° C. for testing.

[2] = Test Example 1: pharmacokinetic performance of rotigotine caprylate injection in rats (intramuscular); type: in vivo
Description: Test Example 1: Pharmacokinetic Performance of Rotigotine Caprylate Injection in Rats
Rotigotine caprylate: prepared according to Comparative Example 1
Male SD rats (provided by Shandong Luye Pharma Group Ltd.), weighing 190-280 g, 3 rats.
Vehicle containing 1% of HPMC was prepared, and rotigotine caprylate was added to the vehicle to provide a 10 mg/ml of suspension (calculated as rotigotine). Three rats were intramuscularly injected with 2 mL/kg of the drug. Blood samples were taken from the eyelids of the rats before the administration (0 h) and at 0.25 h, 1 h, 6 h, 1 d, 2 d, 3 d, 5 d, 7 d, 9 d, 11 d, 14 d, 16 d, 18 d, 21 d, 24 d, 28 d after administration. Each blood sample was placed into heparinized EP tube, and was immediately centrifuged (3000 rpm) for 10 min. The plasma was separated and stored at −35° C. for testing.

[3] = Test Example 2: pharmacokinetic performance of each drug injection in rats (intramuscular, groups A-C); type: in vivo
Description: Test Example 2: Pharmacokinetic Performance of Each Drug Injection in Rats
(§2) Experimental animals: Male SD rats (provided by Shandong Luye Pharma Group Ltd.), weighing 190-280 g, 12 rats in total, 3 rats in each group.
(§3) Vehicle containing 1% of HPMC was prepared, and rotigotine oleate, rotigotine palmitate and rotigotine stearate were added to the vehicle respectively to provide 10 mg/ml of suspensions (calculated as rotigotine). Rotigotine hydrochloride was formulated as a 0.36 mg/ml injection (calculated as rotigotine) in normal saline.
(§4) The experimental animals were randomly divided into rotigotine oleate group (A), rotigotine palmitate group (B), rotigotine stearate group (C) and rotigotine hydrochloride group (D), with 3 rats in each group. The rats in Groups A, B, and C were intramuscularly injected with the corresponding drug (2 ml/kg), and the rats in group D were injected intravenously with the corresponding drug (2 ml/kg).
as §1, with “d, 24” for “d, 25”, “28” for “28 d, 30 d, 35 d, 39 d, 42”, “Each” for “Each blood”

[4] = Test Example 2: rotigotine hydrochloride intravenous injection in rats (group D); type: in vivo; conditions: male, SD, rat, plasma, rotigotine hydrochloride intravenous 2 ml/kg of 0.36 mg/ml injection, read-out: Blood concentration in rats
Description: Rotigotine hydrochloride: purity of 99.83%
as §2, §3, §4
Blood samples were taken from the eyelids of the rats in Group D before the administration (0 h) and at 3 min, 10 min, 0.25 h, 0.5 h, 1 h, 1.5 h, 2 h, 4 h, 6 h, 8 h, and 12 h after administration. Each blood sample was placed into heparinized EP tube, and was immediately centrifuged (3000 rpm) for 10 min. The plasma was separated and stored at −35° C. for testing.

[5] = first-pass effect of the liver; cited from earlier work

SMILES: CCCCCCCCCCCCCCCCCCCC(=O)Oc1cccc2c1CCC(N(CCC)CCc1cccs1)C2 (stereo not shown) [Rotigotine arachidate]
Maintenance of the effective blood concentration [1]: maintained only for a short period of time

SMILES: CCCCCCCC(=O)Oc1cccc2c1CC[C@H](N(CCC)CCc1cccs1)C2 [Rotigotine caprylate]
Maintenance of the effective blood concentration [2]: maintained only for a short period of time

SMILES: CCCCCCCCCCCCCCCCCCCCCCCC(=O)Oc1cccc2c1CCC(N(CCC)CCc1cccs1)C2 (stereo not shown) [Rotigotine lignocerate]
Maintenance of the effective blood concentration [1]: cannot be maintained for more than two weeks

SMILES: CCCCCCCC/C=C\CCCCCCCC(=O)Oc1cccc2c1CCC(N(CCC)CCc1cccs1)C2 (stereo not shown) [Rotigotine oleate]
Maintenance of the effective blood concentration [3]: maintained only for a short period of time

SMILES: CCCN(CCc1cccs1)[C@H]1CCc2c(O)cccc2C1 [Rotigotine]
concentration at 1 h ([4]; 0.72 mg/kg (calculated as rotigotine), 1 h): 12.1 ng/mL
concentration at 1.5 h ([4]; 0.72 mg/kg (calculated as rotigotine), 1.5 h): 7.25 ng/mL
concentration at 2 h ([4]; 0.72 mg/kg (calculated as rotigotine), 2 h): 4.71 ng/mL
concentration at 0 h ([4]; 0.72 mg/kg, 0 h (before administration)): 0 ng/mL
concentration at 0.05 h ([4]; 0.72 mg/kg, 0.05 h): 82.5 ng/mL
concentration at 0.17 h ([4]; 0.72 mg/kg, 0.17 h): 43.8 ng/mL
concentration at 0.25 h ([4]; 0.72 mg/kg, 0.25 h): 45.4 ng/mL
concentration at 0.5 h ([4]; 0.72 mg/kg, 0.5 h): 29 ng/mL
concentration at 4 h ([4]; 0.72 mg/kg, 4 h): 0.99 ng/mL
concentration at 8 h ([4]; 0.72 mg/kg, 8 h): 0.16 ng/mL
concentration at 12 h ([4]; 0.72 mg/kg, 12 h): 0.04 ng/mL
Oral bioavailability [5]: 1%-5%

Now from value to compound:

Maintenance of the effective blood concentration [1]: more than two weeks
SMILES: CCCCCCCCCCCCCCCCCCCCCC(=O)Oc1cccc2c1CC[C@H](N(CCC)CCc1cccs1)C2 [Rotigotine behenate]

Maintenance of the effective blood concentration [3]: no more than two weeks
SMILES: CCCCCCCCCCCCCCCC(=O)Oc1cccc2c1CCC(N(CCC)CCc1cccs1)C2 (stereo not shown) [Rotigotine palmitate]

Maintenance of the effective blood concentration [3]: no more than two weeks
SMILES: CCCCCCCCCCCCCCCCCC(=O)Oc1cccc2c1CCC(N(CCC)CCc1cccs1)C2 (stereo not shown) [Rotigotine stearate]
